Reference: PubChem BioAssay AID1259407 (Chemical Carcinogenesis Research Information System (CCRIS), 2018)
Calls of active or inactive are those of the source. The rule behind the calls is not given here.

System: CCRIS mutagenicity, Ames/micronucleus/aberration tests
Experiment: CCRIS mutagenicity studies
[1] = Test System: MOUSE LYMPHOMA, Strain/Indicator: L5178Y (TK+/TK-), Metabolic Activation: RAT, LIVER, S-9, AROCLOR 1254, Method: SUSPENSION/PLATE
[2] = Test System: AMES SALMONELLA TYPHIMURIUM, Strain/Indicator: TA98, Metabolic Activation: NONE, Method: STANDARD PLATE
[3] = Test System: AMES SALMONELLA TYPHIMURIUM, Strain/Indicator: TA98, Metabolic Activation: RAT, LIVER, S-9, AROCLOR 1254, Method: STANDARD PLATE
[4] = Test System: AMES SALMONELLA TYPHIMURIUM, Strain/Indicator: TA100, Metabolic Activation: NONE, Method: STANDARD PLATE
[5] = Test System: AMES SALMONELLA TYPHIMURIUM, Strain/Indicator: TA100, Metabolic Activation: RAT, LIVER, S-9, AROCLOR 1254, Method: STANDARD PLATE
[6] = Test System: AMES SALMONELLA TYPHIMURIUM, Strain/Indicator: TA1535, Metabolic Activation: NONE, Method: STANDARD PLATE
[7] = Test System: AMES SALMONELLA TYPHIMURIUM, Strain/Indicator: TA1537, Metabolic Activation: NONE, Method: STANDARD PLATE

Measured: mutagenic call

CN(C)c1ccc(N=Nc2cccc3ccccc23)cc1
active: Test System: AMES SALMONELLA TYPHIMURIUM, Strain/Indicator: TA98, Metabolic Activation: HAMSTER, LIVER, S-9, AROCLOR 1254, Method: STANDARD PLATE active; positive | Test System: AMES SALMONELLA TYPHIMURIUM, Strain/Indicator: TA98, Metabolic Activation: HAMSTER, LIVER, S-9, Method: PREINCUBATION (PRIVAL METHOD) active; positive | Test System: AMES SALMONELLA TYPHIMURIUM, Strain/Indicator: TA98, Metabolic Activation: RAT, LIVER, S-9, AROCLOR 1254, HAMSTER, LIVER, S-9, AROCLOR 1254, Method: STANDARD PLATE active; positive | Test System: AMES SALMONELLA TYPHIMURIUM, Strain/Indicator: TA100, Metabolic Activation: HAMSTER, LIVER, S-9, AROCLOR 1254, Method: STANDARD PLATE active; positive | Test System: AMES SALMONELLA TYPHIMURIUM, Strain/Indicator: TA100, Metabolic Activation: HAMSTER, LIVER, S-9, Method: PREINCUBATION (PRIVAL METHOD) active; positive | Test System: AMES SALMONELLA TYPHIMURIUM, Strain/Indicator: TA1535, Metabolic Activation: RAT, LIVER, S-9, AROCLOR 1254, HAMSTER, LIVER, S-9, AROCLOR 1254, Method: STANDARD PLATE active; positive | Test System: AMES SALMONELLA TYPHIMURIUM, Strain/Indicator: TA1538, Metabolic Activation: RAT, LIVER, S-9, AROCLOR 1254, HAMSTER, LIVER, S-9, AROCLOR 1254, Method: STANDARD PLATE active; positive | [1] active; positive. reevaluation of results: positive | Test System: Mouse lymphoma, Strain/Indicator: L5178Y (tk+/tk-), Metabolic Activation: None, Method: Suspension/plate active; positive

O=C(O)c1cc(Cl)cc2cccnc12
inactive: [2] inactive; negative | [4] inactive; negative | [6] inactive; negative | Test System: AMES SALMONELLA TYPHIMURIUM, Strain/Indicator: TA1535, Metabolic Activation: RAT, LIVER, S-9, AROCLOR 1254, Method: STANDARD PLATE inactive; negative | [7] inactive; negative
active: [3] active; positive | [5] active; positive | Test System: AMES SALMONELLA TYPHIMURIUM, Strain/Indicator: TA1537, Metabolic Activation: RAT, LIVER, S-9, AROCLOR 1254, Method: STANDARD PLATE active; positive

C[C@@H]1C[C@@H]2c3cccc4[nH]cc(c34)C[C@H]2N(C)C1
active: [5] active; positive

COC(=O)c1occ(-c2ccccc2)c1-c1ccccc1
inactive: [2] inactive; negative | [4] inactive; negative

COc1ccc(CN2C3c4ccccc4-c4ccccc4C32)cc1 (stereo not given)
active: [4] active; positive

ClC(Cl)=C(Cl)c1cccc(Cl)c1Cl
inactive: [2] inactive; negative | [3] inactive; negative | [4] inactive; negative | [5] inactive; negative

COc1ccc(-c2nc(-c3ccccc3)c(-c3ccccc3)[nH]2)cc1OC
active: [2] active; positive | [4] active; positive | Test System: AMES SALMONELLA TYPHIMURIUM, Strain/Indicator: TA100, Metabolic Activation: RAT LIVER S-9, 3-METHYLCHOLANTHRENE, SODIUM PHENOBARBITAL, Method: STANDARD PLATE active; positive

N#CC(C#N)=C(C#N)C#N
inactive: Test System: AMES SALMONELLA TYPHIMURIUM, Strain/Indicator: TA98, Metabolic Activation: HAMSTER, LIVER, S-9, AROCLOR 1254 (10%), Method: STANDARD PLATE inactive; negative | [2] inactive; negative | Test System: AMES SALMONELLA TYPHIMURIUM, Strain/Indicator: TA98, Metabolic Activation: RAT, LIVER, S-9, AROCLOR 1254 (10%), Method: STANDARD PLATE inactive; negative | Test System: AMES SALMONELLA TYPHIMURIUM, Strain/Indicator: TA100, Metabolic Activation: HAMSTER, LIVER, S-9, AROCLOR 1254 (10%), Method: STANDARD PLATE inactive; negative | [4] inactive; negative | Test System: AMES SALMONELLA TYPHIMURIUM, Strain/Indicator: TA100, Metabolic Activation: RAT, LIVER, S-9, AROCLOR 1254 (10%), Method: STANDARD PLATE inactive; negative | Test System: AMES SALMONELLA TYPHIMURIUM, Strain/Indicator: TA1535, Metabolic Activation: HAMSTER, LIVER, S-9, AROCLOR 1254 (10%), Method: STANDARD PLATE inactive; negative | [6] inactive; negative | Test System: AMES SALMONELLA TYPHIMURIUM, Strain/Indicator: TA1535, Metabolic Activation: RAT, LIVER, S-9, AROCLOR 1254 (10%), Method: STANDARD PLATE inactive; negative | Test System: AMES SALMONELLA TYPHIMURIUM, Strain/Indicator: TA1537, Metabolic Activation: HAMSTER, LIVER, S-9, AROCLOR 1254 (10%), Method: STANDARD PLATE inactive; negative | [7] inactive; negative | Test System: AMES SALMONELLA TYPHIMURIUM, Strain/Indicator: TA1537, Metabolic Activation: RAT, LIVER, S-9, AROCLOR 1254 (10%), Method: STANDARD PLATE inactive; negative | Test System: AMES SALMONELLA TYPHIMURIUM, Strain/Indicator: TA1538, Metabolic Activation: HAMSTER, LIVER, S-9, AROCLOR 1254 (10%), Method: STANDARD PLATE inactive; negative | Test System: AMES SALMONELLA TYPHIMURIUM, Strain/Indicator: TA1538, Metabolic Activation: NONE, Method: STANDARD PLATE inactive; negative | Test System: AMES SALMONELLA TYPHIMURIUM, Strain/Indicator: TA1538, Metabolic Activation: RAT, LIVER, S-9, AROCLOR 1254 (10%), Method: STANDARD PLATE inactive; negative | Test System: MOUSE LYMPHOMA, Strain/Indicator: L5178Y (TK+/TK-), Metabolic Activation: NONE, Method: SUSPENSION/PLATE inactive; negative. reevaluation of results: inconclusive | [1] inactive; negative. reevaluation of results: inconclusive
